In a melting point compilation (Tetko et al.; mined from patent text by program, amines drawn as free bases though some values may be those of a salt):

Row | Compound | melting point
1 | COc1cc(CCCC2OC(=O)NC2=O)ccc1OCc1nc(-c2ccccc2)sc1C (stereo not given) | 128 to 129 °C
2 | COc1ccc(/C=C/c2nc3c(c(=O)n(C)c(=O)n3C)n2C)c(C)c1C | > 275 °C
3 | O=C1CC(C(F)(F)F)CC(=O)N1c1cc(OS(=O)(=O)c2ccccc2)c(Cl)cc1F | 214 to 215 °C
4 | CC(=O)c1cc(C)c2c(n1)-c1ccccc1C2=O | 170 to 172 °C
5 | COC(=O)C(CCSC)c1nc(C)nc2c1nnn2-c1ccc(C(C)C)cc1Br (stereo not given) | 135 to 137 °C
6 | COC(=O)Nc1nc2cc(C)[nH]c2c(=O)[nH]1 | 234 to 236 °C
7 | COc1ccc(-c2nc(/C=C/c3nccn3C)nc3cc(OC)c(OC)cc23)cc1OC | 180 to 181 °C
8 | CCc1nc2c(cnn2CC)c(NC2CCOCC2)c1CNC(=O)c1cccc(C(=O)NCc2ccc(F)c(-c3cccc(CN4CC5CC4CN5)c3)c2)c1 (stereo not given) | 129 to 133 °C
9 | COc1cccc(Cc2snnc2-c2ccco2)c1 | 80.6 to 82 °C
10 | C#Cc1ccc2c(c1)C(c1ccccn1)=NCc1c(-c3nc(C(C)C)no3)ncn1-2 | > 200 °C
11 | CNS(=O)(=O)Nc1ncccc1C(=O)OC | 133 to 139 °C
12 | CCCC12CCC(c3ccc(Cl)cc3)(OC1)OC2 | 94 °C
13 | O=C(O)c1cccc2c1CC(N(CCCc1c[nH]c3c(F)cc(F)cc13)C1CCC1)CO2 (stereo not given) | 130 to 131 °C
14 | COc1cc(C(O)(C(F)(F)F)C(F)(F)F)cc(Br)c1NS(C)(=O)=O | 38 to 41 °C
15 | N#Cc1[nH]c(Br)c(C#N)c1Br | 227 to 232 °C
16 | CC12CCCC1C1=CCc3cc(O)ccc3C1CC2 (stereo not given) | 130 to 134 °C
17 | O=C(N[C@H]1CC[C@H](CCN2CCN(c3nccc4c3CCO4)CC2)CC1)c1ccc2ncccc2c1 | 227 °C
18 | N#Cc1ccc(Cl)c(N=Cc2ccccc2O)c1 | 147 to 148 °C
19 | CC(C)(C)OC(=O)N1CCN(CCc2ccc(Nc3ncc4c(n3)-c3ccccc3C(c3ccccc3C(F)(F)F)C4)cc2)CC1 (stereo not given) | 234 to 235 °C
20 | COc1cc2c(c3c1OC(C)(C)C3)C(c1cccc(C(=O)NC(C)(C)C(N)=O)c1)=NC(C)(C)C2 | 129 to 131 °C
21 | COc1cc(OC)c([N+](=O)[O-])nc1NCCO | 131 °C
22 | C=CCc1cc2c(cc1O)C(C)(C)C(O)O2 (stereo not given) | 66 to 67 °C
23 | Clc1ccccc1N=Cc1ccc(-c2nc3ccccn3n2)cc1 | 135 to 136 °C
24 | CCOC(=O)c1nn(-c2ccccc2)c2c1COc1ccccc1-2 | 154 to 156 °C

Row | Compound | melting point
25 | CCc1c(-c2ccc(OC)cc2)cn2ccc(OC)cc12 | 101 to 103 °C
26 | O=C(O)Cc1oc2ccc(Cl)cc2c1-c1ccccc1 | 194 to 195 °C
27 | COc1cc(C(=O)Nc2c(C)cc3cn[nH]c3c2C(=O)NC2(C3CC3)CC2)n(-c2ncccc2Cl)n1 | 150 to 154 °C
28 | CC(=O)Nc1nc(CCc2ccc(NC(=N)N)cc2)c(C(=O)N2CCN(C(C)=O)CC2)s1 | 206 to 208 °C
29 | CCCCOCCOc1ccc(-c2ccc3c(c2)C=C(C(=O)Nc2ccc(SCc4nncn4CCC)c(C(F)(F)F)c2)CCN3CC(C)C)cc1 | 131 to 133 °C
30 | CC(=O)NCC(CCl)OC(C)=O (stereo not given) | 68 to 69.5 °C
31 | COc1ccc(Br)c(C(Cl)=NNS(=O)(=O)c2ccccc2)c1 | 104 to 106 °C
32 | COc1cccc([C@]23CCN(C)C(=O)[C@@H]2CCC2(C3)OCCO2)c1 (relative stereo) | 180 to 181 °C
33 | CC(=O)NCc1ccc2ccn(C3CCN(CCc4ccccc4F)CC3)c2c1 | 101 to 102 °C
34 | O=[N+]([O-])c1ccc(-c2ccc(-c3ccc([N+](=O)[O-])cc3OCc3ccccc3)o2)c(OCc2ccccc2)c1 | 233 to 237 °C
35 | O=C(O)c1ccccc1CN1C(=O)C2(COc3cc4c(cc32)OCO4)c2ccccc21 (stereo not given) | > 250 °C
36 | O=C(Nc1cnns1)c1ccccc1 | 267 °C
37 | COC(=O)c1nc(CCl)n(-c2ccc(Cl)cc2C(=O)c2ccccc2Cl)n1 | 130 to 132 °C
38 | CCOc1cc2oc(=O)c3c(c2cc1OCC)CCN(CC(C)=O)C3 | 146 to 148 °C
39 | CCOC(=O)Nc1ccc(C(=O)OCC)nc1 | 177 to 178 °C
40 | CC1(C)C(C=NOCC2CC2)C1C(=O)O (stereo not given) | 82 to 85 °C
41 | Cc1cccc(-c2c3c(cc4ccc5c(c24)OCO5)C(=O)NC3)c1 | 244 to 246 °C
42 | O=C1COCCCOC(=O)COCCCO1 | 135 to 136 °C
43 | CC(NC(=S)Nc1ccc(Nc2ccccc2)nc1)C(C)(C)C (stereo not given) | 168 to 170 °C
44 | Cc1oc(-c2ccccc2)nc1CCOc1ccc(CO)cc1 | 110 to 113 °C
45 | CC(C)NC(=O)Nc1cc(-c2ccnc3c(C(=O)c4cccs4)cnn23)ccc1F | > 200 °C
46 | CCCCOC(=O)c1cc(=NS(=O)(=O)c2ccccc2)c2c(Cl)cc(Cl)cc2[nH]1 | 94 to 95 °C
47 | CCN1c2ncccc2C(=O)N(C)c2cccnc21 | 130 to 132 °C
48 | CC1C(=O)N(c2ccc(Oc3ccccc3)cc2)C(=S)N1c1ccccc1 (stereo not given) | 132 °C

Row | Compound | melting point
49 | CC(=O)C1=C(O)C(=C(C)Nc2ccc(Cl)cc2)C(=O)OC1=O | 205 to 206 °C
50 | COc1c(C=O)c2cc(Cl)c(Cl)cc2n1C1CC(O)C(CO)O1 (stereo not given) | 186 to 187 °C
51 | Cc1ccc2c(c1)c(N1CCN(C(=O)c3ccco3)CC1)c(C#N)c(=O)n2Cc1ccccc1 | 146 °C
52 | O=C(O)CCc1cnoc1-c1ccc(F)c(F)c1 | 102 to 103 °C
53 | CON(Cc1ccc(NC(C)=O)cc1)C(=O)C1=C(O)C(=O)N(C)C1 | 110 °C
54 | CS(=O)(=O)NC(=O)N1CC1C#N (stereo not given) | 110 to 112 °C
55 | Oc1nc(S)n(-c2ccccc2)n1 | 223 to 226 °C
56 | CC(C(=O)O)c1ccc(Nc2nc3ccccc3[nH]2)cc1 (stereo not given) | 355 to 358 °C
57 | CC(C)(C)Nc1c(NCc2cc3cc([N+](=O)[O-])ccc3o2)c(=O)c1=O | > 300 °C
58 | N#CC1CN1C(=O)CNC(N)=O (stereo not given) | 110 to 114 °C
59 | O=C1NCCCc2cc(CCCl)sc21 | 156 to 158 °C
60 | C[C@H](c1ncnc(Sc2ccc(Cl)cc2)c1F)[C@@](O)(Cn1cncn1)c1ccc(F)cc1F | 158 to 160 °C
61 | CCCN(CCC)c1ccc(Cl)nn1 | 49 to 51 °C
62 | COc1ccc(COCc2nc(C(C)C)c(Sc3cc(Cl)cc(Cl)c3)n2CC(=O)c2ccccc2)cc1 | 205 to 211 °C
63 | O=c1oc2c(c(O)c1-c1ccc(F)cc1)CCCC2 | 272 °C
64 | CCCOc1ccc(C=CC(=O)c2c(OC)cc(OC)cc2OC(=O)CC)cc1 | 102 °C
65 | CS(=O)(=O)Nc1cc([C@@H](O)CNC2CCN(c3ccc(S(=O)(=O)N4CCC[C@@H]4C(=O)OCc4ccccc4)cc3)CC2)ccc1O | 62 to 69 °C
66 | CC(C)Oc1nccc2c1C(c1ccccc1C(F)(F)F)c1c(cc[nH]c1=O)N2 (stereo not given) | 315 °C
67 | CC(C)(NC(=O)c1nnc2ccc(OCCCN3CCC(OC(c4ccccc4)c4ccccc4)CC3)nn12)C(=O)O | 163 to 165 °C
68 | N#Cc1cc2c(-c3ccncc3)nccc2[nH]c1=O | > 300 °C
69 | CC(C)CN(CC(C)C)c1ccc(C(=O)c2ccccc2)cc1[N+](=O)[O-] | 80 to 81 °C
70 | O=C(NC1CCCCC1)c1ccc(CCN2CC=C(c3c[nH]c(-c4ccc(F)cc4)c3-c3ccncc3)CC2)cc1 | 243 to 245 °C
